For orientation: IC50 means the point on the concentration scale where inhibition reaches its midpoint. A higher IC50 goes with weaker potency.

SMILES strings stand for the structures.

What all share (assay): Cell proliferation assay (CellTiter-Glo)
Common to all, as to assay type: cell-based
For orientation: Cellular ATP, detected with luciferase, serves as a proxy for viable cell number.

The target of one assay is T1, BaF3 EML4-ALK (Homo sapiens, UniProt Q9UM73).
T1 construct: The EML4-ALK gene (variant 1) was synthesized at GenScript and cloned into pCDH-CMV-MCS-EF1-Puro plasmid (System Biosciences, Inc); fused on or other part: EML4 N-terminal part (variant 1: exons 1-13, with the coiled-coil that oligomerises the fusion) fused to the intracellular part of ALK, which contains the kinase domain; Q9HC35 (Echinoderm microtubule-associated protein-like 4)
The note with it: anti-cell proliferation, 72 hours. The procedure:
Cloning and Ba/F3 or NIH3T3 Stable Cell Line Creation
The EML4-ALK gene (variant 1) was synthesized at GenScript and cloned into pCDH-CMV-MCS-EF1-Puro plasmid (System Biosciences, Inc). Ba/F3-EML4-ALK wild type were generated by transducing Ba/F3 cells with lentivirus containing EML4-ALK wide type. Stable cell lines were selected by puromycin treatment, followed by IL-3 withdrawal. Briefly, 5×10^6 Ba/F3 cells were transduced with lentivirus supernatant in the presence of 8 μg/mL protamine sulfate. The transduced cells were subsequently selected with 1 μg/mL puromycin in the presence of IL3-containing medium RPMI1640, plus 10% FBS. After 10-12 days of selection, the surviving cells were further selected for IL3 independent growth.
(§1) Cell Proliferation Assays:
(§2) Two thousand cells per well were seeded in 384 well white plate for 24 hrs, and then treated with compounds for 72 hours (37° C., 5% CO2). Cell proliferation was measured using CellTiter-Glo luciferase-based ATP detection assay (Promega) following the manufactures's protocol. IC50 determinations were performed using GraphPad Prism software (GraphPad, Inc., San Diego, Calif.).

In a further assay the test system is KG-1 cell (OP2-FGFR1). Conditions: Homo sapiens, anti-cell proliferation, 72 hours. As for the experimental part:
(§3) Cell Lines and Cell Culture:
(§4) Colorectal cell line KM 12 (harboring endogenous TPM3-TRKA fusion gene) was obtained from NCI. Acute myelogenous cell line KG-1 (harboring endogenous OP2-FGFR1 fusion gene) were purchased from ATCC.
as §1, §2

For the next assay, the system named is KM12 (TPM3-TRKA). Conditions: Homo sapiens, anti-cell proliferation, 72 hours. The procedure: as §3, §4, §1, §2

T1 sequence (Q9UM73 whole entry, stated change not applied, the tested form may be a part): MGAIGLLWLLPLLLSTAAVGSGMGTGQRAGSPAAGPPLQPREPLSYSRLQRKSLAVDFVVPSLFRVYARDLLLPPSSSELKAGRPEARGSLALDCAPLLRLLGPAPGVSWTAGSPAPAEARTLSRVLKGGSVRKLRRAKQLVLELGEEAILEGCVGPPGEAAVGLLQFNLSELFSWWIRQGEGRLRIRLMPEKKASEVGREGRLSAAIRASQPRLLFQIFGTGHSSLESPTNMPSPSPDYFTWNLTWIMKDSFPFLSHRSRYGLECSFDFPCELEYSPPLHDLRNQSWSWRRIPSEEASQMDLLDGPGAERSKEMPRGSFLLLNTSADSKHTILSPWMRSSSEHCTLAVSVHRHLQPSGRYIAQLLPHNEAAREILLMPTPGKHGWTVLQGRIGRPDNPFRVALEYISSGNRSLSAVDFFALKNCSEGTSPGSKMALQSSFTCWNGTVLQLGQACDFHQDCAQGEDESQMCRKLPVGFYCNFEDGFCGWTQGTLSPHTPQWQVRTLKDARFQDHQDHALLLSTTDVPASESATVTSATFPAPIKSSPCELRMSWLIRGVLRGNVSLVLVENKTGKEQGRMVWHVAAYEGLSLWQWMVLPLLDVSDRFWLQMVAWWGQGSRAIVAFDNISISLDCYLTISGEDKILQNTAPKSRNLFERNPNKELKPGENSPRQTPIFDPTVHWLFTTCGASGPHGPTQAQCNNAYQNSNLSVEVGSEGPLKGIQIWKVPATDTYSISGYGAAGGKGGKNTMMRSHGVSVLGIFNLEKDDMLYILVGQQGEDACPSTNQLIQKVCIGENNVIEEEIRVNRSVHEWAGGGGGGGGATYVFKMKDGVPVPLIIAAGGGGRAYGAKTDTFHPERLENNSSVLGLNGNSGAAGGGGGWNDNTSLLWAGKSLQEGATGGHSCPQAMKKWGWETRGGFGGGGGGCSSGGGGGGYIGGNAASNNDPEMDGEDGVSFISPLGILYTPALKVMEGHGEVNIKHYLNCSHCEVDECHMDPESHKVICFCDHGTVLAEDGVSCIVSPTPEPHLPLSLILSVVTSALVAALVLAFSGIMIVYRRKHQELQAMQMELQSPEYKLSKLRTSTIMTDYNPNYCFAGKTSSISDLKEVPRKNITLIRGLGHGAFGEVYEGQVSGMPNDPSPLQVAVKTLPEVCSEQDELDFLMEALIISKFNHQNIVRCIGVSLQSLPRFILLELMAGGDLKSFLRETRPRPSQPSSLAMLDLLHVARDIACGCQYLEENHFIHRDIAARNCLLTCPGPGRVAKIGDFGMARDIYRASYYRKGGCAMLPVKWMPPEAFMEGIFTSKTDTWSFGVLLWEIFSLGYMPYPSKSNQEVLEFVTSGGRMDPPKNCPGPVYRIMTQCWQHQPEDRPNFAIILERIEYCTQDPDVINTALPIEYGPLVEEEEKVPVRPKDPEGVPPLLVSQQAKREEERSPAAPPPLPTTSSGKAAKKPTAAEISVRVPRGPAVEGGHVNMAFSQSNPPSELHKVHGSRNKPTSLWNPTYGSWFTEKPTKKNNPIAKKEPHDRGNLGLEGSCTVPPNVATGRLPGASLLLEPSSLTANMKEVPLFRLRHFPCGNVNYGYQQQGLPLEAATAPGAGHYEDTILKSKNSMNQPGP

In the case of `C[C@@H]1COc2cn3ncc4c3nc2N1Cc1cc(F)cnc1OC[C@H](C)NC4=O` [Compound 51, (4R,13S)-8-fluoro-4,13-dimethyl-3,4,13,14-tetrahydro-6H-18,1-(metheno)[1,4]oxazino[3,4-i]-pyrazolo[4,3-f]pyrido[3,2-l] [1,4,8,10]oxatriazacyclotridecin-15(12H)-one], the values for the concentration for half-maximal inhibition (IC50) against BaF3 EML4-ALK, in the assay with KG-1 cell (OP2-FGFR1) and in the assay on KM12 (TPM3-TRKA) were 233 nM, 101 nM and below 0.2 nM, respectively.

As to `C[C@@H]1COc2cn3ncc4c3nc2N(Cc2cc(F)cnc2O[C@@H](C)CNC4=O)C1` [Compound 30, (4S,13S)-9-fluoro-4,13-dimethyl-4,5,14,15-tetrahydro-3H,7H-19,1-(metheno)[1,4]oxazepino[3,4-i]-pyrazolo[4,3-f]pyrido[3,2-l] [1,4,8,10]oxatriazacyclotridecin-16(13H)-one], the IC50 against BaF3 EML4-ALK is 7380 nM; in the assay with KG-1 cell (OP2-FGFR1), 536 nM; in the assay on KM12 (TPM3-TRKA) it was 42 nM.

Consider `C=C1COc2cn3ncc4c3nc2N1Cc1cc(F)cnc1OC[C@@H](C)NC4=O` [Compound 42, (13R)-8-fluoro-13-methyl-4-methylidene-3,4,13,14-tetrahydro-6H-18,1-(metheno)[1,4]oxazino[3,4-i]pyrazolo[4,3-f]pyrido[3,2-1][1,4,8,10]oxatriazacyclotridecin-15(12H)-one], for which the IC50 against BaF3 EML4-ALK was 1200 nM; in the assay on KG-1 cell (OP2-FGFR1), 1230 nM; in the assay on KM12 (TPM3-TRKA) it was below 0.2 nM.

Consider `C[C@@H]1CCOc2cn3ncc4c3nc2N1Cc1cc(F)cnc1O[C@@H](C)CNC4=O` [Compound 21, (5R,13S)-9-fluoro-5,13-dimethyl-4,5,14,15-tetrahydro-3H,7H-19,1-(metheno)[1,4]oxazepino[3,4-i]pyrazolo[4,3-f]pyrido[3,2-l][1,4,8,10]oxatriazacyclotridecin-16(13H)-one], for which the IC50 stood at 3000 nM on BaF3 EML4-ALK, 1820 nM with KG-1 cell (OP2-FGFR1) and 0.6 nM in the assay on KM12 (TPM3-TRKA).

For the compound `C[C@@H]1COc2ncc(F)cc2[C@H](C)N2c3nc4c(cnn4cc3OC[C@H]2C)C(=O)N1` [Compound 84, (4R,6S,13R)-8-fluoro-4,6,13-trimethyl-3,4,13,14-tetrahydro-6H-18,1-(metheno)[1,4]oxazino[3,4-i]pyrazolo[4,3-f]pyrido[3,2-l][1,4,8,10]oxatriazacyclotridecin-15(12H)-one], the values for the IC50 against BaF3 EML4-ALK, with KG-1 cell (OP2-FGFR1) and in the assay on KM12 (TPM3-TRKA) were 366 nM, 130 nM and below 0.2 nM, respectively.

In the case of `COC[C@@H]1COc2cn3ncc4c3nc2N1Cc1cc(F)cnc1OC[C@@H](C)NC4=O` [Compound 44, (4R,13R)-8-fluoro-4-(methoxymethyl)-13-methyl-3,4,13,14-tetrahydro-6H-18,1-(metheno)[1,4]oxazino[3,4-i]pyrazolo[4,3-f]pyrido[3,2-1][1,4,8,10]oxatriazacyclotridecin-15(12H)-one], the IC50 was 549 nM against BaF3 EML4-ALK, 168 nM in the assay with KG-1 cell (OP2-FGFR1) and below 0.2 nM in the assay with KM12 (TPM3-TRKA).

Consider `C[C@@H]1COc2cn3ncc4c3nc2N1Cc1cc(F)cnc1OC[C@H](F)CNC4=O` [Compound 80, (7R,16R)-7,12-difluoro-16-methyl-5,6,7,8,16,17-hexahydro-4H,14H-1,19-(metheno)[1,4]-oxazino[4,3-e]pyrazolo[3,4-h]pyrido[2,3-b][1,5,7,11]oxa-triazacyclotetradecin-4-one], for which the values for the IC50 against BaF3 EML4-ALK, in the assay on KG-1 cell (OP2-FGFR1) and in the assay on KM12 (TPM3-TRKA) were 134 nM, 44.4 nM and below 0.2 nM, respectively.

As to `C[C@@H]1COc2cn3ncc4c3nc2N1Cc1cc(F)cnc1OCC1(CCC1)NC4=O` [Compound 45, (4′R)-8′-fluoro-4′-methyl-3′H,4′H,6′H,12′H,14′H,15′H-spiro[cyclobutane-1,13′-[2,11]-dioxa[5,10,14,17,18,19]hexaaza-[18,1](metheno)[1,4]oxazino[3,4-i]pyrazolo[4,3-f]pyrido[3,2-l] [1,4,8,10]oxatriazacyclotridecin]-15′-one], the IC50 was 2.7 nM on BaF3 EML4-ALK, 5 nM in the assay with KG-1 cell (OP2-FGFR1) and below 0.2 nM with KM12 (TPM3-TRKA).

With `C[C@@H]1COc2cn3ncc4c3nc2N(Cc2cc(F)ccc2O[C@@H](C)CNC4=O)C1` [Compound 20, (4S,13S)-9-fluoro-4,13-dimethyl-4,5,14,15-tetrahydro-3H,7H-19,1-(metheno)[1,4]oxazepino[3,4-i]-pyrazolo[4,3-f][1,4,8,10]benzo-xatriazacyclotridecin-16(13H)-one], the IC50 was 4910 nM at BaF3 EML4-ALK, 2420 nM with KG-1 cell (OP2-FGFR1) and 5.1 nM in the assay on KM12 (TPM3-TRKA).

For the compound `C[C@@H]1COc2cn3ncc4c3nc2N(Cc2cc(F)cnc2OC[C@@H](C)CNC4=O)C1` [Compound 100, (7S,17S)-12-fluoro-7,17-dimethyl-5,6,7,8,17,18-hexahydro-4H,14H,16H-1,20-(metheno)[1,4]oxazepino-[4,3-e]pyrazolo[3,4-h]pyrido-[2,3-b][1,5,7,11]oxatriaza-cyclotetradecin-4-one], the results for the IC50 against BaF3 EML4-ALK, with KG-1 cell (OP2-FGFR1) and with KM12 (TPM3-TRKA) were 2500 nM, 2800 nM and 72.8 nM, respectively.

Consider `C[C@@H]1COc2cn3ncc4c3nc2N1Cc1cc(F)cnc1OC[C@@H](O)CNC4=O` [Compound 54, (7S,16R)-12-fluoro-7-hydroxy-16-methyl-5,6,7,8,16,17-hexa-hydro-4H,14H-1,19-(metheno)-[1,4]oxazino[4,3-e]pyrazolo-[3,4-h]pyrido[2,3-b][1,5,7,11]-oxatriazacyclotetradecin-4-one], for which the half-inhibitory concentration (IC50) against BaF3 EML4-ALK is 661 nM; in the assay on KG-1 cell (OP2-FGFR1), 678 nM; with KM12 (TPM3-TRKA) it was below 0.2 nM.

On to `C[C@@H]1CCOc2cn3ncc4c3nc2N1Cc1cc(F)ccc1O[C@@H](C)CNC4=O` [Compound 19, (5R,13S)-9-fluoro-5,13-dimethyl-4,5,14,15-tetrahydro-3H,7H-19,1-(metheno)[1,4]oxazepino[3,4-i]-pyrazolo[4,3-f][1,4,8,10]benzo-xatriazacyclotridecin-16(13H)-one], for which the results for the IC50 against BaF3 EML4-ALK, in the assay with KG-1 cell (OP2-FGFR1) and with KM12 (TPM3-TRKA) were 6220 nM, 9950 nM and below 0.2 nM, respectively.

As for `C[C@@H]1COc2ncc(F)cc2CN2c3nc4c(cnn4cc3OC[C@H]2CN=[N+]=[N-])C(=O)N1` [Compound 43, (4R,13R)-4-(azidomethyl)-8-fluoro-13-methyl-3,4,13,14-tetrahydro-6H-18,1-(metheno)-[1,4]oxazino[3,4-i]pyrazolo[4,3-f]pyrido[3,2-l][1,4,8,10]oxatriaza-cyclotridecin-15(12H)-one], the values for the IC50 on BaF3 EML4-ALK, with KG-1 cell (OP2-FGFR1) and with KM12 (TPM3-TRKA) were 85 nM, 30.6 nM and 0.2 nM, respectively.

With `C[C@@H]1COc2ncc(F)cc2CN2c3nc4c(cnn4cc3OC[C@H]2C2CC2)C(=O)N1` [Compound 25, (4R,13R)-4-cyclopropyl-8-fluoro-13-methyl-3,4,13,14-tetrahydro-6H-18,1-(metheno)[1,4]oxazino[3,4-i]pyrazolo[4,3-f]pyrido[3,2-l][1,4,8,10]oxatriazacyclotridecin-15(12H)-one], the IC50 against BaF3 EML4-ALK is 89.1 nM; in the assay with KG-1 cell (OP2-FGFR1), 131 nM; in the assay on KM12 (TPM3-TRKA), below 0.2 nM.

Regarding `CC1CNC(=O)c2cnn3cc4c(nc23)N(Cc2cc(F)cnc2OC1)[C@H](C)CO4` (stereo partly drawn) [Compound 71, (16R)-12-fluoro-7,16-dimethyl-5,6,7,8,16,17-hexahydro-4H,14H-1,19-(metheno)[1,4]oxazino[4,3-e]pyrazolo[3,4-h]pyrido[2,3-b] [1,5,7,11]oxatriazacyclotetradecin-4-one], the IC50 against BaF3 EML4-ALK was 19.9 nM; in the assay with KG-1 cell (OP2-FGFR1), 11.9 nM; with KM12 (TPM3-TRKA) it was below 0.2 nM.

With `C[C@@H]1COc2cn3ncc4c3nc2N(Cc2cc(F)cnc2OC[C@@H](C)NC4=O)C1` [Compound 29, (4S,14R)-9-fluoro-4,14-dimethyl-4,5,14,15-tetrahydro-3H,7H-19,1-(metheno)[1,4]oxazepino[3,4-i]-pyrazolo[4,3-f]pyrido[3,2-l] [1,4,8,10]oxatriazacyclotridecin-16(13H)-one], the figures for the IC50 against BaF3 EML4-ALK, in the assay with KG-1 cell (OP2-FGFR1) and with KM12 (TPM3-TRKA) were 826 nM, 130 nM and 9.6 nM, respectively.

As for `C[C@@H]1COc2cn3ncc4c3nc2N1Cc1cc(F)cnc1OCCCNC4=O` [Compound 33, (16R)-12-fluoro-16-methyl-5,6,7,8,16,17-hexahydro-4H,14H-1,19-(metheno)[1,4]oxazino[4,3-e]pyrazolo[3,4-h]pyrido[2,3-b] [1,5,7,11]oxatriazacyclotetradecin-4-one], the IC50 was 58.4 nM at BaF3 EML4-ALK, 37.1 nM with KG-1 cell (OP2-FGFR1) and below 0.2 nM in the assay on KM12 (TPM3-TRKA).

Regarding `C[C@@H]1COc2cn3ncc4c3nc2N1Cc1cc(F)cnc1OC[C@H](CO)NC4=O` [Compound 82, (4R,13S)-8-fluoro-13-(hydroxy-methyl)-4-methyl-3,4,13,14-tetrahydro-6H-18,1-(metheno)-[1,4]oxazino[3,4-i]pyrazolo[4,3-f]pyrido[3,2-l][1,4,8,10]oxatriaza-cyclotridecin-15(12H)-one], the IC50 was 657 nM at BaF3 EML4-ALK, 37.3 nM in the assay on KG-1 cell (OP2-FGFR1) and below 0.2 nM with KM12 (TPM3-TRKA).
